Data from ChEMBL document CHEMBL3856238, “Synthesis of novel nicotinohydrazide and (1,3,4-oxadiazol-2-yl)-6-(trifluoromethyl)pyridine derivatives as potential anticancer agents” (Bioorg Med Chem Lett, 2016).

Assays:
Type in all cases: functional, cell-based
[1] = Cytotoxicity against human HeLa cells assessed as cell growth inhibition by MTT assay
[2] = Cytotoxicity against human DU145 cells assessed as cell growth inhibition by MTT assay; conditions: DU-145
[3] = Cytotoxicity against human HepG2 cells assessed as cell growth inhibition by MTT assay
[4] = Cytotoxicity against human MDA-MB-231 cells assessed as cell growth inhibition by MTT assay

`COc1ccc(-c2nnc(-c3ccc(C(F)(F)F)nc3N)o2)cc1` showed an IC50 [1] of 14.8 µM, an IC50 [2] of 10.7 µM and an IC50 [3] of 11.2 µM. For the same molecule, the IC50 [4] was 13.5 µM.

Molecule `CCc1nnc(-c2ccc(C(F)(F)F)nc2Nc2cc(OC)c(OC)c(OC)c2)o1` has an IC50 [1] of 23.3 µM, an IC50 [2] of 22.1 µM and an IC50 [3] of 19.9 µM. The IC50 [4] was 20.5 µM.

`FC(F)(F)c1ccc(-c2nnc(-c3ccco3)o2)c(NCc2ccco2)n1` gave an IC50 [1] of 9.8 µM, an IC50 [2] of 8.2 µM and an IC50 [3] of 9.5 µM. The IC50 [4] was 8.7 µM.

`CCCc1nnc(-c2ccc(C(F)(F)F)nc2Nc2cccc(F)c2)o1` showed an IC50 [1] of 19.6 µM, an IC50 [2] of 18.9 µM and an IC50 [3] of 17.7 µM. It also gave an IC50 [4] of 13.5 µM.

In the case of `O=C(N/N=C/c1ccccc1)c1ccc(C(F)(F)F)nc1NCc1ccco1`, the IC50 [1] is reported as 31.4 µM, the IC50 [2] is reported as 30.5 µM and the IC50 [3] is reported as 32.2 µM. For the same molecule, the IC50 [4] was 26.6 µM.

`CCc1nnc(-c2ccc(C(F)(F)F)nc2Nc2cccc(F)c2)o1` gave an IC50 [1] of 20.9 µM, an IC50 [2] of 22.2 µM and an IC50 [3] of 26.4 µM. It also gave an IC50 [4] of 18.7 µM.

`O=c1[nH]cc(F)c(=O)[nH]1` [FLUOROURACIL] showed an IC50 [1] of 1.9 µM, an IC50 [2] of 1.6 µM and an IC50 [3] of 1.3 µM. For the same molecule, the IC50 [4] was 1.8 µM.
